Measurements taken from EP4603105A1, “PHARMACEUTICAL COMPOSITION CONTAINING CYCLIC COMPOUND HAVING SELECTIVE KRAS INHIBITORY EFFECT AGAINST HRAS AND NRAS” (CHUGAI SEIYAKU KABUSHIKI KAISHA, priority 2022, dated 2024).

Tests used:
[1] = tested on: human lung cancer strain NCI-H441; assay: NCI-H441 cell proliferation inhibitory activity (CellTiter-Glo, 4 days); assay type: cell-based; conditions: NCI-H441 cells, 4 days, read-out: NCl-H441 IC50
Outline: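 Proliferation was scored by […] measured after the reagent was added to cultures kept at 37°C in 5% carbon dioxide.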

[2] = target: GDP-bound KRAS wild-type protein (Homo sapiens, UniProt P01116); assay: Binding to KRAS by surface plasmon resonance (SPR), dissociation constant KD; conditions: Single Cycle Kinetics
GDP-bound KRAS wild-type protein, sequence (P01116 1-188 isoform P01116-2): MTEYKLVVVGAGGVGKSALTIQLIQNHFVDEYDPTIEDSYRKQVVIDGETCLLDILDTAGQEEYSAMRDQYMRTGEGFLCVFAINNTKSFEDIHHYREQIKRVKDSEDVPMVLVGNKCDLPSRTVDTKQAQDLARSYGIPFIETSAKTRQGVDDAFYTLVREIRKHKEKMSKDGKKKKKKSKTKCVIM
Outline: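 Measured at 30°C: SPR with GDP-loaded, E. coli-expressed biotin-Avi RAS captured (~100–300 RU), ascending 75 s compound injections, HBS pH 7.4 with GDP, MgCl2, 4% DMSO. KD from 1:1 fit.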

[3] = target: GDP-bound NRAS wild-type protein (Homo sapiens, UniProt P01111); assay: Binding to NRAS by surface plasmon resonance (SPR), KD and KD ratio to KRAS; conditions: ratio of KD for GDP-bound NRAS wild-type protein to KD for KRAS
GDP-bound NRAS wild-type protein, sequence (P01111 whole entry): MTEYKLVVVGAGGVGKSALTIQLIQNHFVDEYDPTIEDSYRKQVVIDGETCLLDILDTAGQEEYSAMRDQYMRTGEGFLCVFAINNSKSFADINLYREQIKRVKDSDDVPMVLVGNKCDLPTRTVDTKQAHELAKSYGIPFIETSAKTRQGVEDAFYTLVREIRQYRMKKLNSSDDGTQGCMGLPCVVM
Outline: (§1)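 Single-cycle kinetics on GDP-loaded biotin-Avi RAS captured to ~100–300 RU; 75 s ascending injections, 100 µL/min, 30°C. HBS pH 7.4 + 10 mM MgCl2/10 µM GDP/4% DMSO. 1:1 fit, KD.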

HRAS wild-type protein = HRAS wild-type protein (Homo sapiens, UniProt P01112); assay: Binding to HRAS by surface plasmon resonance (SPR), KD and KD ratio to KRAS; conditions: ratio of KD for HRAS wild-type protein to KD for KRAS
HRAS wild-type protein, sequence (P01112 whole entry): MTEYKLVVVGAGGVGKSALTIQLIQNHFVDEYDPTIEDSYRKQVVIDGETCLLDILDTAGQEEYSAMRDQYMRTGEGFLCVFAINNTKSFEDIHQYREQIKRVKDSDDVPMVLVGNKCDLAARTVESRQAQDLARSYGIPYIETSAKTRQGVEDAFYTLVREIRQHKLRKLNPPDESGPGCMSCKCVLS
Outline: as §1

| SMILES | IC50 [1] [nM] | Kd [2] [nM] | NRAS /KRAS [3] | HRAS /KRAS (HRAS wild-type protein) |
| --- | --- | --- | --- | --- |
| CCO[C@@H]1C[C@H]2C(=O)NC3(CC(C)(C)C3)C(=O)N(C)[C@@H](C3CCCC3)C(=O)N(C)[C@H](C(=O)N(C)C)CC(=O)N(C)[C@@H]([C@@H](C)OC)C(=O)N[C@@H]([C@@H](C)CC)C(=O)N3CCC[C@H]3C(=O)N(C)[C@H]3C/C=C\CCN(C3=O)[C@@H](Cc3ccc(C)cc3)C(=O)N(C)CC(=O)N[C@@H](CCc3ccc(C(F)(F)F)c(Cl)c3)C(=O)N2C1 [PP3215] | 109 | 0.68 | A (a compound having 10 or more and less than 20 is denoted as A) | A (a compound having 10 or more and less than 20 is denoted as A) |
| CCO[C@@H]1C[C@H]2C(=O)NC3(CC(C)(C)C3)C(=O)N(C)[C@@H](C3CCCC3)C(=O)N(C)[C@H](C(=O)N(C)CC)CC(=O)N(C)[C@@H]([C@H](C)OC)C(=O)N[C@@H]([C@@H](C)CC)C(=O)N(C)CC(=O)N(C)[C@H]3C/C=C\CCN(C3=O)[C@@H](Cc3ccc(C(F)(F)F)cc3)C(=O)N(C)CC(=O)N[C@@H](CCc3cc(F)c(C(F)(F)F)c(F)c3)C(=O)N2C1 [PP3217] | 9.9 | 0.18 | A (a compound having 10 or more and less than 20 is denoted as A) | B (a compound having 3 or more and less than 10 is denoted as B) |
| CCO[C@@H]1C[C@H]2C(=O)NC3(CC(C)(C)C3)C(=O)N(C)[C@@H](C3CCCC3)C(=O)N(C)[C@H](C(=O)N(C)CC)CC(=O)N(C)[C@@H]([C@H](C)OC)C(=O)N[C@@H]([C@@H](C)CC)C(=O)N3CCC[C@H]3C(=O)N(C)[C@H]3C/C=C\CCN(C3=O)[C@@H](Cc3ccc(C(F)(F)F)cc3)C(=O)N(C)CC(=O)N[C@@H](CCc3cc(F)c(C(F)(F)F)c(F)c3)C(=O)N2C1 [PP3223] | 49.6 | 1.1 | A (a compound having 10 or more and less than 20 is denoted as A) | A (a compound having 10 or more and less than 20 is denoted as A) |
| CCO[C@@H]1C[C@H]2C(=O)NC3(CC(C)(C)C3)C(=O)N(C)[C@@H](C3CCCC3)C(=O)N(C)[C@H](C(=O)N(C)CC)CC(=O)N(C)[C@@H]([C@H](C)OC)C(=O)N[C@@H]([C@@H](C)CC)C(=O)N(C)CC(=O)N(C)[C@H]3C/C=C\CCN(C3=O)[C@@H](Cc3ccc(C)cc3)C(=O)N(C)CC(=O)N[C@@H](CCc3cc(F)c(C(F)(F)F)c(F)c3)C(=O)N2C1 [PP3226] | 12.4 | 0.3 | A (a compound having 10 or more and less than 20 is denoted as A) | B (a compound having 3 or more and less than 10 is denoted as B) |
| CCO[C@@H]1C[C@H]2C(=O)NC3(CC(C)(C)C3)C(=O)N(C)[C@@H](C3CCCC3)C(=O)N(C)[C@H](C(=O)N(C)CC)CC(=O)N(C)[C@@H]([C@H](C)OC)C(=O)N[C@@H]([C@@H](C)CC)C(=O)N(C)CC(=O)N(C)[C@H]3C/C=C\CCN(C3=O)[C@@H](Cc3ccc(C)cc3)C(=O)N(C)CC(=O)N[C@@H](CCc3ccc(C(F)(F)F)c(Cl)c3)C(=O)N2C1 [PP3227] | 23.2 | 0.21 | A (a compound having 10 or more and less than 20 is denoted as A) | A (a compound having 10 or more and less than 20 is denoted as A) |
| C#CC[C@H]1C(=O)N[C@@H]([C@@H](C)CC)C(=O)N(C)CC(=O)N(C)[C@H]2C/C=C\CCN(C2=O)[C@@H](Cc2ccc(C(F)(F)F)cc2)C(=O)N(C)CC(=O)N[C@@H](CCc2ccc(C(F)(F)F)c(OC)c2)C(=O)N2C[C@H](OCC)C[C@H]2C(=O)N(C)C2(CCC2)C(=O)N(C)[C@@H](C2CCCC2)C(=O)N(C)[C@H](C(=O)N(C)C)CC(=O)N1C [PP3230] | 2.6 | 0.03 | A (a compound having 10 or more and less than 20 is denoted as A) | A (a compound having 10 or more and less than 20 is denoted as A) |

More lines, main results first:

| IC50 [1] [nM] | Kd [2] [nM] | SMILES | NRAS /KRAS [3] | HRAS /KRAS (HRAS wild-type protein) |
| --- | --- | --- | --- | --- |
| 15.3 | 0.31 | CCO[C@@H]1C[C@H]2C(=O)NC3(CC(C)(C)C3)C(=O)N(C)[C@@H](C3CCCC3)C(=O)N(C)[C@H](C(=O)N(C)C)CC(=O)N(C)[C@@H]([C@H](C)OC)C(=O)N[C@@H]([C@@H](C)CC)C(=O)N(C3CC3)CC(=O)N(C)[C@H]3C/C=C\CCN(C3=O)[C@@H](Cc3ccc(C(F)(F)F)cc3)C(=O)N(C)CC(=O)N[C@@H](CCc3cc(F)c(C(F)(F)F)c(F)c3)C(=O)N2C1 [PP3175] | A (a compound having 10 or more and less than 20 is denoted as A) | A (a compound having 10 or more and less than 20 is denoted as A) |
| 13.6 | 0.09 | CCO[C@@H]1C[C@H]2C(=O)NC3(CC(C)(C)C3)C(=O)N(C)[C@@H](C3CCCC3)C(=O)N(C)[C@H](C(=O)N(C)CC)CC(=O)N(C)[C@@H]([C@@H](C)OC)C(=O)N[C@@H]([C@@H](C)CC)C(=O)N(C)CC(=O)N(C)[C@H]3C/C=C\CCN(C3=O)[C@@H](Cc3ccc(C)cc3)C(=O)N(C)CC(=O)N[C@@H](CCc3ccc(C(F)(F)F)c(OC)c3)C(=O)N2C1 [PP3176] | A (a compound having 10 or more and less than 20 is denoted as A) | A (a compound having 10 or more and less than 20 is denoted as A) |
| 19.6 | 0.53 | CCO[C@@H]1C[C@H]2C(=O)NC3(CC(C)(C)C3)C(=O)N(C)[C@@H](C3CCCC3)C(=O)N(C)[C@H](C(=O)N(C)CC)CC(=O)N(C)[C@@H]([C@H](C)OC)C(=O)N[C@@H]([C@@H](C)CC)C(=O)N(C3CC3)CC(=O)N(C)[C@H]3C/C=C\CCN(C3=O)[C@@H](Cc3ccc(C(F)(F)F)cc3)C(=O)N(C)CC(=O)N[C@@H](CCc3ccc(C(F)(F)F)c(OC)c3)C(=O)N2C1 [PP3219] | A (a compound having 10 or more and less than 20 is denoted as A) | A (a compound having 10 or more and less than 20 is denoted as A) |
| 25.7 | 0.52 | CCO[C@@H]1C[C@H]2C(=O)NC3(CC(C)(C)C3)C(=O)N(C)[C@@H](C3CCCC3)C(=O)N(C)[C@H](C(=O)N(C)CC)CC(=O)N(C)[C@@H]([C@H](C)OC)C(=O)N[C@@H]([C@@H](C)CC)C(=O)N(C3CC3)CC(=O)N(C)[C@H]3C/C=C\CCN(C3=O)[C@@H](Cc3ccc(C(F)(F)F)cc3)C(=O)N(C)CC(=O)N[C@@H](CCc3cc(F)c(C(F)(F)F)c(F)c3)C(=O)N2C1 [PP3220] | A (a compound having 10 or more and less than 20 is denoted as A) | A (a compound having 10 or more and less than 20 is denoted as A) |
| 51.5 | 0.82 | CCO[C@@H]1C[C@H]2C(=O)NC3(CC(C)(C)C3)C(=O)N(C)[C@@H](C3CCCC3)C(=O)N(C)[C@H](C(=O)N(C)CC)CC(=O)N(C)[C@@H]([C@H](C)OC)C(=O)N[C@@H]([C@@H](C)CC)C(=O)N(C3CC3)CC(=O)N(C)[C@H]3C/C=C\CCN(C3=O)[C@@H](Cc3ccc(C(F)(F)F)cc3)C(=O)N(C)CC(=O)N[C@@H](CCc3ccc(C(F)(F)F)c(Cl)c3)C(=O)N2C1 [PP3221] | A (a compound having 10 or more and less than 20 is denoted as A) | A (a compound having 10 or more and less than 20 is denoted as A) |
| 71.7 | 1.4 | CCO[C@@H]1C[C@H]2C(=O)NC3(CC(C)(C)C3)C(=O)N(C)[C@@H](C3CCCC3)C(=O)N(C)[C@H](C(=O)N(C)CC)CC(=O)N(C)[C@@H]([C@H](C)OC)C(=O)N[C@@H]([C@@H](C)CC)C(=O)N3CCC[C@H]3C(=O)N(C)[C@H]3C/C=C\CCN(C3=O)[C@@H](Cc3ccc(C(F)(F)F)cc3)C(=O)N(C)CC(=O)N[C@@H](CCc3ccc(C(F)(F)F)c(OC)c3)C(=O)N2C1 [PP3222] | A (a compound having 10 or more and less than 20 is denoted as A) | A (a compound having 10 or more and less than 20 is denoted as A) |
| 55.4 | 1.9 | CCO[C@@H]1C[C@H]2C(=O)NC3(CC(C)(C)C3)C(=O)N(C)[C@@H](C3CCCC3)C(=O)N(C)[C@H](C(=O)N(C)CC)CC(=O)N(C)[C@@H]([C@H](C)OC)C(=O)N[C@@H]([C@@H](C)CC)C(=O)N3CCC[C@H]3C(=O)N(C)[C@H]3C/C=C\CCN(C3=O)[C@@H](Cc3ccc(C(F)(F)F)cc3)C(=O)N(C)CC(=O)N[C@@H](CCc3ccc(C(F)(F)F)c(Cl)c3)C(=O)N2C1 [PP3224] | A (a compound having 10 or more and less than 20 is denoted as A) | A (a compound having 10 or more and less than 20 is denoted as A) |
| 41.5 | 0.81 | CCO[C@@H]1C[C@H]2C(=O)NC3(CC(C)(C)C3)C(=O)N(C)[C@@H](C3CCCC3)C(=O)N(C)[C@H](C(=O)N(C)CC)CC(=O)N(C)[C@@H]([C@H](C)OC)C(=O)N[C@@H]([C@@H](C)CC)C(=O)N(C3CC3)CC(=O)N(C)[C@H]3C/C=C\CCN(C3=O)[C@@H](Cc3ccc(C)cc3)C(=O)N(C)CC(=O)N[C@@H](CCc3ccc(C(F)(F)F)c(OC)c3)C(=O)N2C1 [PP3228] | A (a compound having 10 or more and less than 20 is denoted as A) | A (a compound having 10 or more and less than 20 is denoted as A) |
